Reference: patent US20250275953A1, “VODOBATINIB FOR REDUCING PROGRESSION OF PARKINSON'S DISEASE” (Sun Pharma Advanced Research Company Ltd., priority 2022, published 2025)
Entries after “also recorded” stand apart in the source; their conditions may differ.

How the values were obtained:
[1] = target: Abl (E255K) (Homo sapiens, UniProt P00519, E255K); test: Biochemical kinase assay, mutant Abl
From the text: (§1) Conventional biochemical kinase assays, using radioactivity and fluorescence as readouts, were used to derive half maximal-inhibitory concentrations (IC50) values.

[2] = target: Abl (F317I) (Homo sapiens, UniProt P00519, F317I); test: Biochemical kinase assay, mutant Abl
From the text: as §1

[3] = target: Abl (F317L) (Homo sapiens, UniProt P00519, F317L); test: Biochemical kinase assay, mutant Abl
From the text: as §1

[4] = target: Abl (H396P) (Homo sapiens, UniProt P00519, H396P); test: Biochemical kinase assay, mutant Abl
From the text: as §1

[5] = target: Abl (M351T) (Homo sapiens, UniProt P00519, M351T); test: Biochemical kinase assay, mutant Abl
From the text: as §1

[6] = target: Abl (Q252H) (Homo sapiens, UniProt P00519, Q252H); test: Biochemical kinase assay, mutant Abl
From the text: as §1

[7] = target: Abl (Y253F) (Homo sapiens, UniProt P00519, Y253F); test: Biochemical kinase assay, mutant Abl
From the text: as §1

[8] = Safety and tolerability, Parkinson's disease patients (NCT02970019); assay type: in vivo, human; details: for Possibly related AEs by subject: daily for 14 days
From the text: Of these, 44 subjects completed the study. An additional 10 subjects were enrolled in the open label part of the study, of these, one subject was discontinued due to an AE of vomiting.
Safety population was comprised of 48 subjects (not including those in the open label cohorts) and PK population was comprised of 36 subjects from double blind part and 10 subjects from open label part of the study. No subjects were discontinued from the study due to protocol deviation.
Study NCT02970019 was a multi-center safety and tolerability study of vodobatinib in 60 subjects with Parkinson's Disease (diagnosed with PD according to the Brain Bank criteria of the United Kingdom Parkinson's Disease Society) who were randomized to receive placebo or various daily doses of vodobatinib for 14 days in a parallel assignment design with quadruple masking (participant, care provider, investigator, and outcomes assessor.) In study NCT02970019, consecutive cohorts of up to eight subjects received once-daily doses of 6, 12, 18, 24, 48, 96, 192, or 384 mg of study drug for 14 days, with six subjects in each cohort on vodobatinib and two subjects in each cohort on placebo. An alternating panel design was used such that subjects in the 6 and 18 mg cohorts were the same, and subjects in the 12 and 24 mg cohorts were the same, thus yielding 48 total individuals enrolled in the eight cohorts. There was a wash-out period of 14 days between each were studied in sequential ascending dose cohorts. In parallel to the double-blind cohorts, up to four subjects per dose cohort were enrolled in an open-label study of vodobatinib to receive 24, 48 or 96 mg once-daily doses of for 14 days. These subjects underwent lumbar puncture to collect CSF on Day 1, and 2-3 h after the last morning dose on Day 14. PK blood draws (for both double-blind and open label) were collected at pre-dose (˜30 min) and at 0.5, 1, 2, 4, 8, 12 and 24 h post-dose on Days 1 and 14.

For `Cc1ccc(C(=O)NNC(=O)c2c(C)cccc2Cl)cc1C#Cc1cnc2ccccc2c1` [N′-(2-chloro-6-methylbenzoyl)-4-methyl-3-[2-(3-quinolyl)ethynyl]-benzohydrazide], the inhibition [1] was “potently inhibit”, the inhibition [2] was “potently inhibit” and the inhibition [3] was “potently inhibit”. It also gave an IC50 [4] of 0.5 nM, an IC50 [5] of 0.8 nM and an IC50 [6] of 0.8 nM. The IC50 [7] was 1 nM, the “n/N (number of AEs per number of subjects in dose group)” value ([8]; 6 mg DB) was 6 mg DB (5/8) and the “Possibly related AEs by subject” value ([8]; 6 mg DB, listed as Vodobatinib) was “Increased appetite, feet & ankle weakness, infraorbital puffiness,; also recorded: increased tremor and dry eyes”. For the same compound, the “n/N (number of AEs per number of subjects in dose group)” value ([8]; 12 mg DB) was 12 mg DB (3/8), the “Possibly related AEs by subject” value ([8]; 12 mg DB, listed as Vodobatinib) was “Light-headedness; also recorded: Decreased balance & decreased gait” and the “n/N (number of AEs per number of subjects in dose group)” value ([8]; 18 mg DB) was 18 mg DB (3/6). The “Possibly related AEs by subject” value ([8]; 18 mg DB) was “New onset atrial fibrillation and orthostasis (moderate severity)”, the “n/N (number of AEs per number of subjects in dose group)” value ([8]; 24 mg DB) was 24 mg DB (1/8) and the “Possibly related AEs by subject” value ([8]; 24 mg DB) was “None”. For the same compound, the “n/N (number of AEs per number of subjects in dose group)” value ([8]; 24 mg OL) was 24 mg OL (3/3), the “Possibly related AEs by subject” value ([8]; 24 mg OL, listed as Vodobatinib) was “Vertigo, headache, nausea, weakness, vomiting (all moderate” and the “n/N (number of AEs per number of subjects in dose group)” value ([8]; 48 mg DB) was 48 mg DB (2/8). The “Possibly related AEs by subject” value ([8]; 48 mg DB) was “None”, the “n/N (number of AEs per number of subjects in dose group)” value ([8]; 96 mg DB) was 96 mg DB (2/8) and the “Possibly related AEs by subject” value ([8]; 96 mg DB, listed as Vodobatinib) was “Abdominal pain and soft stool; also recorded: Brain fog, worsening of right lower leg cramps”. The “n/N (number of AEs per number of subjects in dose group)” value ([8]; 96 mg OL) was 96 mg OL (2/4), the “Possibly related AEs by subject” value ([8]; 96 mg OL, listed as Vodobatinib) was “Dry eyes; also recorded: Worsening of muscle cramps (“probably related”)” and the “n/N (number of AEs per number of subjects in dose group)” value ([8]; 192 mg DB) was 192 mg DB (3/8). The “Possibly related AEs by subject” value ([8]; 192 mg DB, listed as Vodobatinib) was “Mild rash, epigastric pain; also recorded: Somnolence, worsening of left upper extremities resting tremor; also recorded: Erythematous, pruritic rash on torso and head”, the “subjects discontinued due to AEs” value ([8]; 192 mg, 384 mg (double-blind), 24 mg (open-label)) was “Three” and the “changes in laboratory values” ([8]; PD patients) was “no clinically significant drug related changes”. For the same compound, the “changes in the QT interval” value ([8]; PD patients) was “no drug-related changes”, the “overall safety and tolerability” value ([8]; PD patients) was “acceptable safety and tolerability” and the “changes in laboratory values” ([8]; PD patients, listed as vodobatinib) was “no clinically significant drug-related changes”. For the same compound, the “number of TEAEs, overall” value ([8]; PD subjects, 14 days) was 63, the “subjects reporting TEAEs, overall” value ([8]; PD subjects, 14 days) was 32 and the “Most common treatment related TEAEs (>1 subject)” value ([8]; double-blind part) was “rash, abdominal pain and tremor”. The “number of TEAEs” value ([8]; double-blind part) was 42, the “subjects reporting TEAEs” value ([8]; double-blind part) was “Twenty-three” and the “subjects reporting TEAEs” value ([8]; double-blind, 6 mg cohort) was 3. For the same compound, the “subjects reporting TEAEs” value ([8]; double-blind, 12 mg cohort) was 3, the “subjects reporting TEAEs” value ([8]; double-blind, 18 mg cohort) was 2 and the “subjects reporting TEAEs” value ([8]; double-blind, 24 mg cohort) was “one”. For the same compound, the “subjects reporting TEAEs” value ([8]; double-blind, 48 mg cohort) was “one”, the “subjects reporting TEAEs” value ([8]; double-blind, 96 mg cohort) was 2 and the “subjects reporting TEAEs” value ([8]; double-blind, 192 mg cohort) was 3. The “subjects reporting TEAEs” value ([8]; double-blind, 384 mg cohort) was 5, the “most severe TEAE” value ([8]; one subject, 48 mg group, treatment unrelated, resolved) was “asthenia of grade 3 severity” and the “number of TEAEs” value ([8]; open-label part) was 21. The “subjects reporting TEAEs” value ([8]; open-label part) was “Nine”, the “number of TEAEs” value ([8]; open-label, 24 mg cohort (3 subjects)) was 10 and the “number of TEAEs” value ([8]; open-label, 48 mg cohort (3 subjects)) was 6. For the same compound, the “number of TEAEs” value ([8]; open-label, 96 mg cohort (3 subjects)) was 5, the “number of treatment related TEAEs” value ([8]; overall) was 35 and the “subjects reporting treatment related TEAEs” value ([8]; overall) was “Twenty-one”.
